Measured values reported in patent US20250041367A1, “BACTERIOPHAGES AND USE THEREOF FOR THE TREATMENT OR PREVENTION OF INFECTION CAUSED BY E. COLI” (Purdue Research Foundation, priority 2023, published 2025).

Columns and labels:
APEC strain O2:H4 = assay: Antibiogram by micro-broth dilution (MIC); format: cell-based, Escherichia coli; settings: confirmed on sorbitol-MacConkey agar
Description: (§1) As non-pathogenic E. coli are among the bacteria normally present in chickens' gastrointestinal tracts, potential antibiotic resistance selection markers in challenge APEC strains were identified by conducting antibiograms of each APEC strain in the library of APEC strains using a previously described micro-broth dilution method. 90 μL of Brain Heart Infusion broth was aliquoted into each well of 96-well plates. Antibiotics (specifically, kanamycin, gentamycin, neomycin, nalidixic acid, streptomycin, and ampicillin) were added to wells in order to establish an antibiotic concentration gradient spanning across each antibiotic's minimum inhibitory concentration (MIC) as reported by NARMS. […] Following incubation, the lowest concentration of each antibiotic that prevented visible bacterial growth was recorded as the MIC for that antibiotic. MICs were confirmed for each APEC strain by plating each strain on sorbitol-MacConkey agar supplemented with antibiotics at the determined MICs and incubating plates overnight at 37° C. The challenge APEC strain was then selected by incubating samples from chicken ceca on sorbitol-MacConkey agar supplemented with antibiotics at the determined MICs and incubating these samples overnight at 37° C. […]

[1] = tested on: all other bacteria in the cecal samples; assay: Chicken cecal samples on sorbitol-MacConkey agar supplemented with antibiotics; format: cell-based; settings: streptomycin 64 ug/mL and gentamycin 32 ug/mL, overnight 37° C.
Description: as §1

APEC serotype O2:H4 = assay: Lytic capacity of the six-phage treatment compared with antibiotics (OD600); format: cell-based, Escherichia coli; settings: APEC O2:H4, antibiotic at its minimum inhibitory concentration (NARMS), 1-4 hours
Description: The six APEC strains were individually inoculated into LB broth and incubated at 37° C. until they reached log-phase growth. Phages were added to the log-phase culture of their APEC host at an MOI of 10, and subsequent bacterial concentrations were determined by measuring the absorbance (OD600) of the culture at 1, 2, 3, and 4 hours post-phage application. One flask containing only bacterial culture was included as a negative control. Additional flasks containing both bacterial cultures and antibiotics (specifically, gentamycin sulfate, kanamycin sulfate, nalidixic acid, or chloramphenicol) at their respective minimum inhibitory concentrations (National Antibiotic Resistance Monitoring System (NARMS) 2019, antibiotics tested by NARMS) were included as positive controls. These lytic capacity experiments were conducted in triplicate for each of the phage types and their respective host APEC strains.

Compound	antibiotic concentration at which APEC strain O2:H4 is resistant (APEC strain O2:H4)	growth of all other bacteria in the cecal samples [1]	OD600 readings of antibiotic-treated APEC cultures over time (APEC serotype O2:H4)
[H]/N=C(/N)N[C@H]1[C@H](O)[C@@H](O)[C@H](O[C@@H]2O[C@@H](C)[C@](O)(C=O)[C@H]2O[C@@H]2O[C@@H](CO)[C@H](O)[C@@H](O)[C@@H]2NC)[C@@H](N/C(N)=N\[H])[C@@H]1O [streptomycin]	64 µg/mL	prohibit the growth	
gentamycin	32 µg/mL	prohibit the growth	increased over time
